This note sets out measurements from patent US9708334B2, “Substituted 2,4,5,6-tetrahydropyrrolo[3,4-c]pyrazole and 4,5,6,7-tetrahydro-2H-pyrazolo[4,3-c]pyridine compounds as GlyT1 inhibitors” (DART NEUROSCIENCE (CAYMAN) LTD., priority 2014, dated 2017).

Molecules are shown by their SMILES. Some results are limits rather than exact numbers.

For the experiment, the target named is T1, GlyT1 (Homo sapiens, UniProt P48067).
T1 construct: expressed in transfected cells
T1 sequence (P48067 1-706): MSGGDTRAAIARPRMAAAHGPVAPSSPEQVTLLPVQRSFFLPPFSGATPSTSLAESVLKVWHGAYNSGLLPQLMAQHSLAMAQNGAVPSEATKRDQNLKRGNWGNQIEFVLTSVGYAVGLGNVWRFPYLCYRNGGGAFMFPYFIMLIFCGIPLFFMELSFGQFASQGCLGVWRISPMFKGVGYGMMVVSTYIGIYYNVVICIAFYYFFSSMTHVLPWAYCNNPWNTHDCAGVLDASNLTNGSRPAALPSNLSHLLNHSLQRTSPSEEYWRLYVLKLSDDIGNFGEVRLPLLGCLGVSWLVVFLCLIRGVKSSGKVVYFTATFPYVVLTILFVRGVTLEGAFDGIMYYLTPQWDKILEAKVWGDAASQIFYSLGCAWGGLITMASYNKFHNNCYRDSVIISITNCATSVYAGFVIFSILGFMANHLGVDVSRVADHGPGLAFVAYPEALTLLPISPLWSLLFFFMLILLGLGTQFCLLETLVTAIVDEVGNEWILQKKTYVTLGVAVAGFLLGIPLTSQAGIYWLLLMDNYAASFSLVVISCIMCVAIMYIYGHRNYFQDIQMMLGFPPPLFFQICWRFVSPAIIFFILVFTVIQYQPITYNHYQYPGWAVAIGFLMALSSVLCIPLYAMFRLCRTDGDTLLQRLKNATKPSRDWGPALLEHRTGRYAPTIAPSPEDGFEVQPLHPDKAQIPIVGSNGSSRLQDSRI
The experiment is described as follows: Glycine Transporter 1 (GlyT1) uptake assay, scintillation proximity assay of [14C]-glycine uptake. Conditions: SPA, four parameter logistic fit, read-out: GlyT1 (pIC50) (converted). It is filed as cell-based. The procedure, abridged: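 [14C]-glycine uptake read by scintillation proximity on a plate counter. IC50 from four-parameter logistic fit of dose-response data.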
In general terms: SPA uses beads or plates that emit light when radiolabelled molecules are held near them.
For `C[C@H](Oc1ccc(S(C)(=O)=O)cc1C(=O)N1Cc2cn(-c3ccc(F)c(C(F)F)c3)nc2C1)C(F)(F)F` [Example 75, 2-[3-(Difluoromethyl)-4-fluorophenyl]-5-(5-methanesulfonyl-2-{[(2S)-1 1 1-trifluoropropan-2-yl]oxy}benzoyl)-2H 4H 5H 6H-pyrrolo[3,4-c]pyrazole], the IC50 was less than 100 nM. As for `CC(C)Oc1ccc(S(C)(=O)=O)cc1C(=O)N1Cc2cn(-c3ccc(F)c(C(F)F)c3)nc2C1` [Example 76, 2-[3-(Difluoromethyl)-4-fluorophenyl]-5-[5-methanesulfonyl-2-(propan-2-yloxy)benzoyl]-2H 4H 5H 6H-pyrrolo[3,4-c]pyrazole], the IC50 is less than 100 nM. Then `CC(C)(C)COc1ccc(S(C)(=O)=O)cc1C(=O)N1Cc2cn(-c3ccc(F)c(C(F)F)c3)nc2C1` [Example 77, 2-[3-(Difluoromethyl)-4-fluorophenyl]-5-[2-(2 2-dimethylpropoxy)-5-methanesulfonylbenzoyl]-2H 4H 5H 6H-pyrrolo[3,4-e]pyrazole], with less than 100 nM; and `CCS(=O)(=O)c1ccc(O[C@@H](C)C(F)(F)F)c(C(=O)N2Cc3cn(-c4cccc(C)c4F)nc3C2)c1` [Example 78, 5-[5-(Ethanesulfonyl)-2-{[(2S)-1 1 1-trifluoropropan-2-yl]oxy}benzoyl]-2-(2-fluoro-3-methylphenyl)-2H 4H 5H 6H-pyrrolo[3,4-c]pyrazole], with less than 100 nM; and `CCS(=O)(=O)c1ccc(O[C@@H](C)C(F)(F)F)c(C(=O)N2Cc3cn(-c4ccc(F)c(C(F)F)c4)nc3C2)c1` [Example 79, 2-[3-(Difluoromethyl)-4-fluorophenyl]-5-[5-(ethanesulfonyl)-2-{[(2S)-1 1 1-trifluoropropan-2-yl]oxy}benzoyl]-2H 4H 5H 6H-pyrrolo[3,4-c]pyrazole], with less than 100 nM. Then `CCS(=O)(=O)c1ccc(O[C@@H](C)C(F)(F)F)c(C(=O)N2Cc3cn(-c4ccccc4F)nc3C2)c1` [Example 80, 5-[5-(Ethanesulfonyl)-2-{[(2S)-1 1 1-trifluoropropan-2-yl]oxy}benzoyl]-2-(2-fluorophenyl)-2H 4H 5H 6H-pyrrolo[3,4-c]pyrazole], with less than 100 nM; and `CCS(=O)(=O)c1ccc(OC(C)C)c(C(=O)N2Cc3cn(-c4ccc(F)cc4F)nc3C2)c1` [Example 81, 2-(2 4-Difluorophenyl)-5-[5-(ethanesulfonyl)-2-(propan-2-yloxy)benzoyl]-2H 4H 5H 6H-pyrrolo[3,4-c]pyrazole], with 100 to 1000 nM. In the case of `CCS(=O)(=O)c1ccc(OC(C)C)c(C(=O)N2Cc3cn(-c4ccc(F)c(C(F)F)c4)nc3C2)c1` [Example 82, 2-[3-(Difluoromethyl)-4-fluorophenyl]-5-[5-(ethanesulfonyl)-2-(propan-2-yloxy)benzoyl]-2H 4H 5H 6H-pyrrolo[3,4-c]pyrazole], the IC50 is less than 100 nM. As for `CCS(=O)(=O)c1ccc(OC(C)C)c(C(=O)N2Cc3cn(-c4cccc(C)c4)nc3C2)c1` [Example 83, 5-[5-(Ethanesulfonyl)-2-(propan-2-yloxy)benzoyl]-2-(3-methylphenyl)-2H 4H 5H 6H-pyrrolo[3,4-c]pyrazole], the IC50 was less than 100 nM.

`CCS(=O)(=O)c1ccc(OC(C)C)c(C(=O)N2Cc3cn(-c4ccc(F)cc4)nc3C2)c1` [Example 84, 5-[5-(Ethanesulfonyl)-2-(propan-2-yloxy)benzoyl]-2-(4-fluorophenyl)-2H 4H 5H 6H-pyrrolo[3,4-c]pyrazole]: the IC50 is less than 100 nM. The same measure for `Cc1cccc(-n2cc3c(n2)CN(C(=O)c2cc(S(C)(=O)=O)ccc2OC(C)C)C3)c1` [Example 85, 5-[5-Methanesulfonyl-2-(propan-2-yloxy)benzoyl]-2-(3-methylphenyl)-2H 4H 5H 6H-pyrrolo[3,4-c]pyrazole]: less than 100 nM; for `CC(C)S(=O)(=O)c1ccc(O[C@@H](C)C(F)(F)F)c(C(=O)N2Cc3cn(-c4cccc(C(F)(F)F)c4F)nc3C2)c1` [Example 86, 2-[2-Fluoro-3-(trifluoromethyl)phenyl]-5-[5-(propane-2-sulfonyl)-2-{[(2S)-1 1 1-trifluoropropan-2-yl]oxy}benzoyl]-2H 4H 5H 6H-pyrrolo[3,4-c]pyrazole]: 100 to 1000 nM.

On to `Cc1cccc(-n2cc3c(n2)CN(C(=O)c2cc(S(=O)(=O)C(C)C)ccc2O[C@@H](C)C(F)(F)F)C3)c1F` [Example 87, 2-(2-Fluoro-3-methylphenyl)-5-[5-(propane-2-sulfonyl)-2-{[(2S)-1 1 1-trifluoropropan-2-yl]oxy}benzoyl]-2H 4H 5H 6H-pyrrolo[3,4-c]pyrazole], for which the IC50 was 100 to 1000 nM.

Consider `CC(C)S(=O)(=O)c1ccc(O[C@@H](C)C(F)(F)F)c(C(=O)N2Cc3cn(-c4ccccc4F)nc3C2)c1` [Example 88, 2-(2-Fluorophenyl)-5-[5-(propane-2-sulfonyl)-2-{[(2S)-1 1 1-trifluoropropan-2-yl]oxy}benzoyl]-2H 4H 5H 6H-pyrrolo[3,4-c]pyrazole], for which the IC50 is 100 to 1000 nM. Then `Cc1cccc(-n2cc3c(n2)CN(C(=O)c2cc(S(=O)(=O)C(C)C)ccc2O[C@@H](C)C(F)(F)F)C3)c1` [Example 89, 2-(3-Methylphenyl)-5-[5-(propane-2-sulfonyl)-2-{[(2S)-1 1 1-trifluoropropan-2-yl]oxy}benzoyl]-2H 4H 5H 6H-pyrrolo[3,4-c]pyrazole], with 100 to 1000 nM.

As to `CC(C)S(=O)(=O)c1ccc(O[C@@H](C)C(F)(F)F)c(C(=O)N2Cc3cn(-c4ccccc4)nc3C2)c1` [Example 90, 2-Phenyl-5-[5-(propane-2-sulfonyl)-2-{[(2S)-1 1 1-trifluoropropan-2-yl]oxy}benzoyl]-2H 4H 5H 6H-pyrrolo[3,4-c]pyrazole], the IC50 was 100 to 1000 nM. For `CC(C)S(=O)(=O)c1ccc(O[C@@H](C)C(F)(F)F)c(C(=O)N2Cc3cn(-c4ccc(F)cc4)nc3C2)c1` [Example 91, 2-(4-Fluorophenyl)-5-[5-(propane-2-sulfonyl)-2-{[(2S)-1 1 1-trifluoropropan-2-yl]oxy}benzoyl]-2H 4H 5H 6H-pyrrolo[3,4-c]pyrazole], the IC50 was 100 to 1000 nM. Take `CC(C)S(=O)(=O)c1ccc(O[C@@H](C)C(F)(F)F)c(C(=O)N2Cc3cn(-c4ccc(F)c(F)c4)nc3C2)c1` [Example 92, 2-(3 4-Difluorophenyl)-5-[5-(propane-2-sulfonyl)-2-{[(2S)-1 1 1-trifluoropropan-2-yl]oxy}benzoyl]-2H 4H 5H 6H-pyrrolo[3,4-c]pyrazole]: the IC50 is 100 to 1000 nM. Turning to `CC(C)Oc1ccc(S(=O)(=O)C(C)C)cc1C(=O)N1Cc2cn(-c3cccc(C(F)(F)F)c3F)nc2C1` [Example 93, 2-[2-Fluoro-3-(trifluoromethyl)phenyl]-5-[2-(propan-2-yloxy)-5-(propane-2-sulfonyl)benzoyl]-2H 4H 5H 6H-pyrrolo[3,4-c]pyrazole], the IC50 is 1000 to 10000 nM. With `Cc1cccc(-n2cc3c(n2)CN(C(=O)c2cc(S(=O)(=O)C(C)C)ccc2OC(C)C)C3)c1F` [Example 94, 2-(2-Fluoro-3-methylphenyl)-5-[2-(propan-2-yloxy)-5-(propane-2-sulfonyl)benzoyl]-2H 4H 5H 6H-pyrrolo[3,4-c]pyrazole], the IC50 was 1000 to 10000 nM.

For the compound `CC(C)Oc1ccc(S(=O)(=O)C(C)C)cc1C(=O)N1Cc2cn(-c3ccccc3F)nc2C1` [Example 95, 2-(2-Fluorophenyl)-5-[2-(propan-2-yloxy)-5-(propane-2-sulfonyl)benzoyl]-2H 4H 5H 6H-pyrrolo[3,4-c]pyrazole], the IC50 is 1000 to 10000 nM.

Take `Cc1cccc(-n2cc3c(n2)CN(C(=O)c2cc(S(=O)(=O)C(C)C)ccc2OC(C)C)C3)c1` [Example 96, 2-(3-Methylphenyl)-5-[2-(propan-2-yloxy)-5-(propane-2-sulfonyl)benzoyl]-2H 4H 5H 6H-pyrrolo[3,4-c]pyrazole]: the IC50 was 1000 to 10000 nM. Take `CC(C)Oc1ccc(S(=O)(=O)C(C)C)cc1C(=O)N1Cc2cn(-c3ccccc3)nc2C1` [Example 97, 2-Phenyl-5-[2-(propan-2-yloxy)-5-(propane-2-sulfonyl)benzoyl]-2H 4H 5H 6H-pyrrolo[3,4-c]pyrazole]: the IC50 was 1000 to 10000 nM. As for `CC(C)Oc1ccc(S(=O)(=O)C(C)C)cc1C(=O)N1Cc2cn(-c3ccc(F)cc3)nc2C1` [Example 98, 2-(4-Fluorophenyl)-5-[2-(propan-2-yloxy)-5-(propane-2-sulfonyl)benzoyl]-2H 4H 5H 6H-pyrrolo[3,4-c]pyrazole], the IC50 was 100 to 1000 nM. With `CC(C)Oc1ccc(S(=O)(=O)C(C)C)cc1C(=O)N1Cc2cn(-c3ccc(F)c(F)c3)nc2C1` [Example 99, 2-(3 4-Difluorophenyl)-5-[2-(propan-2-yloxy)-5-(propane-2-sulfonyl)benzoyl]-2H 4H 5H 6H-pyrrolo[3,4-c]pyrazole], the IC50 was 100 to 1000 nM. For the compound `Cc1cc(-n2cc3c(n2)CN(C(=O)c2cc(S(C)(=O)=O)ccc2N2CCC(F)(F)CC2)C3)ccn1` [Example 101, 4-{5-[2-(4 4-Difluoropiperidin-1-yl)-5-methanesulfonylbenzoyl]-2H 4H 5H 6H-pyrrolo[3,4-c]pyrazol-2-yl}-2-methylpyridine], the IC50 was less than 100 nM.
